Measured values published in US10976320B2, “Methods for identifying and treating cancer patients” (The Board of Trustees of the Leland Stanford Junior …, priority 2013, dated 2021).

Legend:
[1] = test system: ARID1A wild-type cells (293T and ES2) and ARID1A mutant cells (Hec1b, SKOV3, T47D, and TOV21G); assay: Synthetic lethal screen, Cell Titer Blue viability after treatment with topoisomerase inhibitors; format: cell-based; conditions: ARID1A mutant vs wild-type cell lines; IC50 (μM) only plotted in FIG. 11A-C; 72 h after compound addition
Experimental: FIG. 11A-FIG. 11C. Synthetic lethal screen comparing the sensitivity of ARID1A wild-type cells (293T and ES2) and ARID1A mutant cells (Hec1b, SKOV3, T47D, and TOV21G) to treatment with topoisomerase inhibitors. Values of IC50 (μM) are plotted on the y-axis, with error bars as shown. FIG. 11A: treatment with etoposide; FIG. 11B: treatment with doxorubicin; FIG. 11C: treatment with ICRF-193.
In each case, 1500-2000 cells were plated in 100 ul per 384 well clear bottom black plate (E&K Scientific EK-30091). After 24 hours, doses of the listed compound diluted in DMSO were pinned into the plates. After 48 hours, 10 ul of Cell Titer Blue (Promega) was added, and the cells were placed back in the incubator. Fluorescence was read after another 24 hours. IC50 values (μM) are reported on the y-axis.

[2] = test system: NCI60 non small cell lung cancer lines expressing BRG1/BRM or deficient in both; conditions: BRG1/BRM-deficient vs expressing NCI60 lung lines; IC50 (μM) only plotted in FIG. 12A-B; CellMiner data; cited from earlier work
Brg1fl/fl(ERD) ESCs = assay: Cell cycle analysis (BrdU/7-AAD FACS) with or without caffeine; format: cell-based, mouse; conditions: caffeine added to media 2 h before BrdU incubation; FIG. 1D
Excerpt: FIG. 1A-FIG. 1F. BRG1 associates with Topo2A and regulates its function. FIG. 1A, Anaphase bridges in Brg1^fl/fl and Brg1^fl/fl(ERD) ESCs. Data represent number of slides from four independent experiments±s.e.m. FIG. 1B, Co-immunoprecipitation of BRG1 and Topo2A from nuclear lysates. FIG. 1C, DNA content in Brg1^fl/fl and Brg1^fl/fl(ERD) ESCs after release from double thymidine block. FIG. 1D, Cell cycle analysis of Brg1^fl/fl and Brg1^fl/fl(ERD) ESCs with or without caffeine, an ATM/ATR inhibitor. FIG. 1E, Data represent five independent histone H3 serine 10 phosphorylation (H3(S10)P cell cycle analyses±s.e.m. FIG. 1F, Data represent the mean of the average chromosome length per cell from 40 cells from metaphase spreads of Brg1^fl/fl and Brg1^fl/fl(ERD) MEFs from two independent experiments.
The cell cycle analysis was performed using BD Biosciences BrdU-FITC FACS kit. ESCs were incubated with BrdU for 1 h and MEFs were incubated with BrdU for 4 h. Brg1^fl/fl and Brg1^fl/fl(ERD) ESCs were analysed 72 h after tamoxifen treatment. Caffeine was added to media 2 h before BrdU incubation. To determine the percent of cells in G2/M, DNA was stained with 7-AAD and analysed by FACS.

Row | Compound | sensitivity of cell lines carrying mutations in BAF subunits to the topoisomerase inhibitor [1] | sensitivity of cell lines carrying mutations in BAF subunits to the topoisomerase inhibitor [2] | effect on G2/M arrest (Brg1fl/fl(ERD) ESCs)
1 | ICRF-193 | no difference in the sensitivity | – | –
2 | COc1cccc2c1C(=O)c1c(O)c3c(c(O)c1C2=O)C[C@@](O)(C(=O)CO)C[C@@H]3O[C@H]1C[C@H](N)[C@H](O)[C@H](C)O1 [doxorubicin] | decreased sensitivity | decreased sensitivity | –
3 | COc1cc([C@@H]2c3cc4c(cc3[C@@H](O[C@@H]3O[C@@H]5CO[C@@H](C)O[C@H]5[C@H](O)[C@H]3O)[C@H]3COC(=O)[C@H]23)OCO4)cc(OC)c1O [etoposide] | decreased sensitivity | decreased sensitivity | –
4 | Cn1c(=O)c2c(ncn2C)n(C)c1=O [Caffeine] | – | – | overrides the G2/M arrest
